Blank lines part the entries; values can stand above or below the compound they belong to. The source made the active and inactive calls.
Legend:
[1] = tested on: T-cell; experiment: loss of vesicle association with mouse CD8+ T cells – mouse 2C CD8+ T cells, flow cytometry, dose response (AID 485284); assay type: functional
[2] = molecular target: T1, Rac GTPase-activating protein 1 (Homo sapiens, UniProt Q9H0H5); experiment: blockers of MgcRacGAP-driven Rac1 GTP hydrolysis – biochemical, ADP Hunter fluorescence, primary and confirmatory, confirmation (AID 624330); assay type: functional
T1 sequence (Q9H0H5 whole entry): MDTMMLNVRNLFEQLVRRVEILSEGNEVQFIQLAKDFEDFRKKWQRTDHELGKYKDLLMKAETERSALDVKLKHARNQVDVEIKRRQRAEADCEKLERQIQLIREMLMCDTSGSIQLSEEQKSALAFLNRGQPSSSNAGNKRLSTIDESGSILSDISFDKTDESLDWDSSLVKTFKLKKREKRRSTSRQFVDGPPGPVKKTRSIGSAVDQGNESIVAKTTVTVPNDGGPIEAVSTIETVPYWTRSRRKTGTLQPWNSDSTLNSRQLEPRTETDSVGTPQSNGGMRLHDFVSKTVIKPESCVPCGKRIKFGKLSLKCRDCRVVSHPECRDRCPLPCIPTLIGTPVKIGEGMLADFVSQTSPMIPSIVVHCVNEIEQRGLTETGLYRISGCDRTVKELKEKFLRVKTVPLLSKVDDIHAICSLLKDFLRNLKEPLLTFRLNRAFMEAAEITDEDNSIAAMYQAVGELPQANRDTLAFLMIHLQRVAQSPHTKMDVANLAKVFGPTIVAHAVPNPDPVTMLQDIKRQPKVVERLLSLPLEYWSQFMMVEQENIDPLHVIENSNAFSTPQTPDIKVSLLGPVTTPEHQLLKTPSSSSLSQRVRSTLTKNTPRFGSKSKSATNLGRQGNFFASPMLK

[3] = molecular target: Glucose-6-phosphate 1-dehydrogenase (Homo sapiens, UniProt P11413); experiment: inhibition of Homo sapiens G6PD, dose series – biochemical, fluorescence, selectivity assay for P. falciparum G6PD inhibitor project, dose response (AID 504792); assay type: functional
Glucose-6-phosphate 1-dehydrogenase, sequence (P11413 whole entry): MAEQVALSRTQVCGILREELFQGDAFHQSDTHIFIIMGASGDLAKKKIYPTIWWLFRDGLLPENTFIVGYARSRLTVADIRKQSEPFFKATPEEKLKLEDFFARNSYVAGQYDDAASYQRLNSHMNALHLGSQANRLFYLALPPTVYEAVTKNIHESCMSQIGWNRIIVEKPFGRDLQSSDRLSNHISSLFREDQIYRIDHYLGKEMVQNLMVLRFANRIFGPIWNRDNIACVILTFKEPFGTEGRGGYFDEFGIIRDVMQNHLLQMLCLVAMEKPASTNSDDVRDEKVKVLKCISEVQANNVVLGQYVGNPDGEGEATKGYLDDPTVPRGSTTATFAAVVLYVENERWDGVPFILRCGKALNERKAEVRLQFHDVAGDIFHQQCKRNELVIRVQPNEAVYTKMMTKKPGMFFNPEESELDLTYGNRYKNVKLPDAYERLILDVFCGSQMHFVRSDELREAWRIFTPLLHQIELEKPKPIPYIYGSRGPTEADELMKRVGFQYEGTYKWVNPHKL

[4] = molecular target: Phosphoethanolamine/phosphocholine phosphatase (Homo sapiens, UniProt Q8TCT1); experiment: SAR assay for compounds that inhibit PHOSPHO1. [Related pubchem assays (depositor defined):AID1545, AID1565, AID1574]
Phosphoethanolamine/phosphocholine phosphatase, sequence (Q8TCT1 whole entry): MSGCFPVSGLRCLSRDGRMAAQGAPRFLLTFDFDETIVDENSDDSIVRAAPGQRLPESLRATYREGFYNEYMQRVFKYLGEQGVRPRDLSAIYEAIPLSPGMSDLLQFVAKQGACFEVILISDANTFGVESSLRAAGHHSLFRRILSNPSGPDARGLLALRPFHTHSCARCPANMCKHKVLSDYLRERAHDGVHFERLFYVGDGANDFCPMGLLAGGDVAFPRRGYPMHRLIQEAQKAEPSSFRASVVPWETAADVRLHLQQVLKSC

[5] = viability loss in HeLa cells – cytotoxicity control for MgcRacGAP inhibitor project, dose response (AID 624300); assay type: functional
[6] = molecular target: DNA dC->dU-editing enzyme APOBEC-3A (Homo sapiens, UniProt P31941); experiment: A3A deaminase inhibition for selectivity – biochemical, dose response (AID 504722); assay type: functional
DNA dC->dU-editing enzyme APOBEC-3A, sequence (P31941 whole entry): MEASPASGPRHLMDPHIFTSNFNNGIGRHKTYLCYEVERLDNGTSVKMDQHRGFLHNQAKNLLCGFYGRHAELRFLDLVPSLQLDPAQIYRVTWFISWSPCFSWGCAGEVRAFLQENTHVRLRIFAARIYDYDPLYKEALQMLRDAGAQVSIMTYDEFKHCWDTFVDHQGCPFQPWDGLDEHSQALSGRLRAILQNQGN

[7] = molecular target: Phosphomannomutase 2 (Homo sapiens, UniProt O15305); experiment: Counter screen SAR assay for PMM2 inhibitors via a fluorescence intensity assay. [Related pubchem assays (depositor defined):AID1545, AID1574]
Phosphomannomutase 2, sequence (O15305 whole entry): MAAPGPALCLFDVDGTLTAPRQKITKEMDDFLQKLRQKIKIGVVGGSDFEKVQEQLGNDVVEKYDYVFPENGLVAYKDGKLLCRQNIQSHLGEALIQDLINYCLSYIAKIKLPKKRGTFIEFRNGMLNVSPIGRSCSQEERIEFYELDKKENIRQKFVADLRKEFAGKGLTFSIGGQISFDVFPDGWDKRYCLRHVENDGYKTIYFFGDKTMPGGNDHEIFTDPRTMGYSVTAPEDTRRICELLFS

[8] = molecular target: T2, Alkaline phosphatase, tissue-nonspecific isozyme (Homo sapiens, UniProt P05186); experiment: potency against alkaline phosphatase TNAP – biochemical, luminescent, dose response, SAR follow-up (AID 1056)
T2 sequence (P05186 whole entry): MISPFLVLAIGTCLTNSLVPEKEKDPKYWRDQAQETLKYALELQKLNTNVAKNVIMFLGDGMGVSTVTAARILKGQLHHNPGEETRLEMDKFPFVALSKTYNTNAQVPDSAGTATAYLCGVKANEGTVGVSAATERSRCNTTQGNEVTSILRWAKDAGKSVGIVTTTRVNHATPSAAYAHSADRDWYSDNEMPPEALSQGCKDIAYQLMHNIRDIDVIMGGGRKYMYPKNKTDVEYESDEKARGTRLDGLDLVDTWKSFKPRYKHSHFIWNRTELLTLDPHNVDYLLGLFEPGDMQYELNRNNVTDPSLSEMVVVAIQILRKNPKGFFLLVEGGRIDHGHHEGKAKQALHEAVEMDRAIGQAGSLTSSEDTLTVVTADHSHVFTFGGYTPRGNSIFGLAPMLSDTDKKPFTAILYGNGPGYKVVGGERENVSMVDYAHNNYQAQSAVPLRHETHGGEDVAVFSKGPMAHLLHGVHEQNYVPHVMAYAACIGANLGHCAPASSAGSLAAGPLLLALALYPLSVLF

[9] = molecular target: DNA dC->dU-editing enzyme APOBEC-3G (Homo sapiens, UniProt Q9HC16); experiment: Dose Response confirmation of small molecule APOBEC3G DNA Deaminase Inhibitors via a fluorescence-based single-stranded DNA deaminase assay. [Related pubchem assays (depositor defined):AID493012, AID493028]; assay type: functional
DNA dC->dU-editing enzyme APOBEC-3G, sequence (Q9HC16 whole entry): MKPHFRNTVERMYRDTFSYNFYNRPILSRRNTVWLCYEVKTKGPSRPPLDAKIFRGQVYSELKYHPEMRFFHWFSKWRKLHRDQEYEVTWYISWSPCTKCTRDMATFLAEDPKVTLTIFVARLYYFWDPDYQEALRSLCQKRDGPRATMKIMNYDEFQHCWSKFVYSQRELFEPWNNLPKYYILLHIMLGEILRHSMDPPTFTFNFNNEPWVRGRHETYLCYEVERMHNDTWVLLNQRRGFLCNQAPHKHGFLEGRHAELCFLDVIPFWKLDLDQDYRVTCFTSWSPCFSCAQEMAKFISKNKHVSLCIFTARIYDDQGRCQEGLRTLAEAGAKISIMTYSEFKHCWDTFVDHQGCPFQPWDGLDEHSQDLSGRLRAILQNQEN

[10] = tested on: Trypanosoma cruzi; experiment: anti-trypanosomal activity in host cells – cell-based, plate reader, dry powder, set 3, dose response (AID 493197); assay type: functional
[11] = NIH/3T3 cell viability loss – mouse embryonic fibroblasts, dry powder, set 2, cytotoxicity control, dose response (AID 493247); assay type: functional, cell-based; conditions: Fibroblast
[12] = molecular target: T3, Kappa-type opioid receptor (Homo sapiens, UniProt P41145); experiment: SAR analysis of small molecule antagonists of the kappa opioid receptor via a luminescent beta-arrestin assay - Set 4. [Related pubchem assays (depositor defined):AID1777, AID1778, AID1785, AID1786, AID1966, AID2133, AID2136, AID2285]; assay type: functional
T3 sequence (P41145 whole entry): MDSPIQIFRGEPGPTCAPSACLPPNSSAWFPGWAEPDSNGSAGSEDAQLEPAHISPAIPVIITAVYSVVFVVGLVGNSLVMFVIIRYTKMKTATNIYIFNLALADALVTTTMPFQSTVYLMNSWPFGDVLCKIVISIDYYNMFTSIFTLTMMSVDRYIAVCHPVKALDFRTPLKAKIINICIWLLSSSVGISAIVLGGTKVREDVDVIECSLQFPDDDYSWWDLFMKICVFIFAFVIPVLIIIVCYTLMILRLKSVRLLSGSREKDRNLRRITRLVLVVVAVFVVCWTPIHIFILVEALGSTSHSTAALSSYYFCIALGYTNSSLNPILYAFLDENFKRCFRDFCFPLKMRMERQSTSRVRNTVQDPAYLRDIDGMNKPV

[13] = molecular target: Delta-type opioid receptor (Homo sapiens, UniProt P41143); experiment: SAR Analysis of Antagonists of the DOR Receptor using an Image-Based Assay - Set 3. [Related pubchem assays (depositor defined):AID1777, AID1785]; assay type: functional;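 also: U2OS cells expressing DOR1 and beta-arrestin GFP stimulated with 100 nM SNC80; imaging of GFP-tagged beta-arrestin moving into spots after receptor activation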
Delta-type opioid receptor, sequence (P41143 whole entry): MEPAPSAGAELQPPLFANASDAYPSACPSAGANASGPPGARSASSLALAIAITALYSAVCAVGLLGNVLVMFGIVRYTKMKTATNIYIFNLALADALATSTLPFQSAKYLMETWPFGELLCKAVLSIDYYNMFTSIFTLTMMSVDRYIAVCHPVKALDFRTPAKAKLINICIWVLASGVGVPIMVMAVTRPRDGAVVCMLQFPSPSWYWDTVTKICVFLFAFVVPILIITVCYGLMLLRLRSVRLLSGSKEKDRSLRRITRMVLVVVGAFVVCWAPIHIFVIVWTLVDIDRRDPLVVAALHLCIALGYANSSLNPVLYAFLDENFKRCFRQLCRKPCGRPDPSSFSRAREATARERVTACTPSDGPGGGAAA

[14] = molecular target: T3, Kappa-type opioid receptor; experiment: SAR analysis of small molecule antagonists of the kappa opioid receptor via a luminescent beta-arrestin assay - Set 6. [Related pubchem assays (depositor defined):AID1777, AID1778, AID1785, AID1786, AID1966, AID2133, AID2136, AID2285]; assay type: functional
[15] = molecular target: T3, Kappa-type opioid receptor; experiment: SAR analysis of Antagonists of the Kappa Opioid Receptor (KOR) using an Image-Based Assay - Set 4. [Related pubchem assays (depositor defined):AID1777, AID1785]; assay type: functional
[16] = molecular target: Mu-type opioid receptor (Homo sapiens, UniProt P35372); experiment: SAR Analysis of Antagonists of the MOR Receptor using an Image-Based Assay - Set 3. [Related pubchem assays (depositor defined):AID1777, AID1785, AID1786, AID1966, AID2133, AID2136, AID2284, AID2285, AID2420]; assay type: functional
Mu-type opioid receptor, sequence (P35372 whole entry): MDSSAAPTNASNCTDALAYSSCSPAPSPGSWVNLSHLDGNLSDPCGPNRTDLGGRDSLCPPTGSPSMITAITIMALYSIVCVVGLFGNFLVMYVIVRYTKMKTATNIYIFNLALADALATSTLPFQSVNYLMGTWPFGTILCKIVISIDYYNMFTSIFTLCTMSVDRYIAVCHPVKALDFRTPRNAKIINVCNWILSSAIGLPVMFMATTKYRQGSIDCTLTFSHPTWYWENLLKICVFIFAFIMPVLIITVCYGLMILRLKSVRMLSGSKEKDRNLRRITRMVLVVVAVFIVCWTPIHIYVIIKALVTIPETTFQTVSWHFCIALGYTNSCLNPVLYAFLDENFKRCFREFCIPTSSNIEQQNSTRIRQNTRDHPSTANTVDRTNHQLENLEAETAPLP

[17] = molecular target: Hexokinase (Trypanosoma brucei, UniProt Q38C41); experiment: Confirmation assay for inhibitors of Trypanosoma brucei hexokinase 1-Analogue-first series. [Related pubchem assays (depositor defined):AID1430, AID1632, AID2516, AID2560, AID2579, AID2600, AID449725, AID492951]; assay type: functional
Hexokinase, sequence (Q38C41 whole entry): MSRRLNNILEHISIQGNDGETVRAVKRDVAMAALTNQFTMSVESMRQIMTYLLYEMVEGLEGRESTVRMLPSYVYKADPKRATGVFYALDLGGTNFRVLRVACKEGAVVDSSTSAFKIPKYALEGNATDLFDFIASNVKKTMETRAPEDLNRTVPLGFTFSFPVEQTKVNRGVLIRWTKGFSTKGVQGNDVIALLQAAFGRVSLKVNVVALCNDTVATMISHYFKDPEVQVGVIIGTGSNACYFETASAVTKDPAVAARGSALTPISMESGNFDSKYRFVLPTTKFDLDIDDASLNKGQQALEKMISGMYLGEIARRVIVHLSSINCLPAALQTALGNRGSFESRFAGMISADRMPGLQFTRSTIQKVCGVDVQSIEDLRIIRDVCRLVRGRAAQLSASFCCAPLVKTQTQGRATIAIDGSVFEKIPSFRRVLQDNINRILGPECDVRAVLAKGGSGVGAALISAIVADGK

[18] = molecular target: T4, Tyrosine-protein phosphatase non-receptor type 7 (Homo sapiens, UniProt P35236); experiment: SAR analysis of chemical inhibitors of HePTP using a Fluorescent assay - Set 2. [Related pubchem assays (depositor defined):AID1059, AID1077, AID1661, AID2085, AID521]; assay type: functional
T4 sequence (P35236 whole entry): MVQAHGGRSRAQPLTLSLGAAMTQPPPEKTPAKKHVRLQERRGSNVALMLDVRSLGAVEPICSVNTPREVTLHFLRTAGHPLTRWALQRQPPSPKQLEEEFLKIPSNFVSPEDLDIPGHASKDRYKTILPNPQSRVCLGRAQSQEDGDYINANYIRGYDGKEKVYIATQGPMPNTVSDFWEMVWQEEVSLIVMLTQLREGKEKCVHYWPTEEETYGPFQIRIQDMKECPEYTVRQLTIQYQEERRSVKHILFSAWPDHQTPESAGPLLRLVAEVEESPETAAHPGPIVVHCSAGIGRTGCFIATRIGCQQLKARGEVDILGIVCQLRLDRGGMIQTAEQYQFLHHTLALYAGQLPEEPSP

[19] = molecular target: Dual specificity protein phosphatase 3 (Homo sapiens, UniProt P51452); experiment: SAR VHR1 Fluorescent Assay for In Vitro dose response studies Set 2. [Related pubchem assays (depositor defined):AID1654, AID1661, AID1878]; assay type: functional
Dual specificity protein phosphatase 3, sequence (P51452 whole entry): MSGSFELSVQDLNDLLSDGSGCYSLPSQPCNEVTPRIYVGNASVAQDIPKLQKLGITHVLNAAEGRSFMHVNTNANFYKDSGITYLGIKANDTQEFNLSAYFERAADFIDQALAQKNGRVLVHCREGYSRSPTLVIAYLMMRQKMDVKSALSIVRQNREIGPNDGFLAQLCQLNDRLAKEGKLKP

[20] = molecular target: Sphingosine 1-phosphate receptor 4 (Homo sapiens, UniProt O95977); experiment: potency of S1P4 activators – cell-based, fluorescence, synthesized compounds, late-stage follow-up (AID 463107); assay type: functional
Sphingosine 1-phosphate receptor 4, sequence (O95977 whole entry): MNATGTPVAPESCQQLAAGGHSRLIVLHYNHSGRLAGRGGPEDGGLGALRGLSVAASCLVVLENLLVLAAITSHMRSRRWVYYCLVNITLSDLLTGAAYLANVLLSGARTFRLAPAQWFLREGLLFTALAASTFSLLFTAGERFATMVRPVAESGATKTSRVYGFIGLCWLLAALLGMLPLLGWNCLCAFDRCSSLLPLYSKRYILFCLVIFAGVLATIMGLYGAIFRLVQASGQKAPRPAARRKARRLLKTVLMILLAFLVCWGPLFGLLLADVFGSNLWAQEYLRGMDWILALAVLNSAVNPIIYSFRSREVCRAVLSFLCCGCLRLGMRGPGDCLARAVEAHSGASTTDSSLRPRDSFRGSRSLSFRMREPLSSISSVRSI

Compound: Cc1ccc(C)c(-n2sc3ccc(F)cc3c2=O)c1
EC50 [1]: 3.62 µM (active) | IC50 [2]: 34 µM (active) | IC50 [3]: 11.3 µM (active) | IC50 [4]: 7.43 µM (inactive) | CC50 [5]: 67.5 µM (active) | IC50 [6]: > 100 µM (inactive) | IC50 [7]: 31.3 µM (active) | IC50 [8]: > 100 µM (inactive) | IC50 [9]: 13.5 µM (active)

Compound: O=C(CCc1ccccc1)N/N=C/c1ccc([N+](=O)[O-])o1
AC50 [10]: 0.335 µM (active) | AC50 [11]: 26.3 µM (active)

IC50 [12]: 3.01 µM (active) | IC50 [13]: > 32 µM (inactive) | IC50 [14]: 4.73 µM (active) | IC50 [15]: 0.168 µM (active) | IC50 [16]: > 32 µM (inactive)
Compound: CCCCc1ccc(S(=O)(=O)NCc2ccc(C(=O)NCCN(Cc3ccccc3)C(C)C)cc2)cc1

Compound: O=c1c(Br)csn1-c1ccc(Br)cc1
IC50 [17]: 11.1 µM (active)

Compound: COc1ccc(OC)c(C(=S)NCc2cccc(F)c2)c1
IC50 [18]: 64 µM (active) | IC50 [19]: 65.2 µM (active)

EC50 [20]: > 50 µM (inactive)
Compound: Cc1ccc(OCCOc2ccccc2C(F)(F)F)c([N+](=O)[O-])n1

— ChEMBL document CHEMBL1201862, “PubChem BioAssay data set” (2004)
